In patent US20220015362A1, “COMPOSITIONS COMPRISING HALAUXIFEN AND OTHER HERBICIDES AND METHODS THEREOF” (DOW AGROSCIENCES LLC, priority 2018, published 2022):

Test system: ERISU (Conyza sumatrensis, Sumatran fleabane)
Test: Greenhouse post-emergence foliar weed control trial, visual injury score 0-100 percent
Format: in vivo
Details: 400 gai/ha
Source text: Results in Examples are greenhouse trial results.
Seeds or nutlets of the desired test plant species were planted in a soil matrix prepared by mixing a loam or sandy loam soil (e.g., 28.6 percent silt, 18.8 percent clay, and 52.6 percent sand, with a pH of about 5.8 and an organic matter content of about 1.8 percent) and calcareous grit in an 80 to 20 ratio. The soil matrix was contained in plastic pots with a volume of 1 quart and a surface area of 83.6 cm2. When required to ensure good germination and healthy plants, a fungicide treatment and/or other chemical or physical treatment was applied. The plants were grown for 8-22 days in a greenhouse with an approximate 14 h photoperiod which was maintained at about 29° C. during the day and 26° C. during the night. Nutrients (Peters Excel® 15-5-155-Ca 2-Mg and iron chelate) were applied in the irrigation solution as needed and water was added on a regular basis. Supplemental lighting was provided with overhead metal halide 1000-Watt lamps as necessary. The plants were employed for testing when they reached the first through fourth true leaf stage.
Treatments comprised of the acid or esters of halauxifen-methyl (methyl 4-amino-3-chloro-6-(4-chloro-2-fluoro-3-methoxyphenyl)picolinate), each formulated as an SC (suspension concentrate), and various herbicidal components alone and in combination. A form of the compound of Formula I were applied on an acid equivalent basis.
Treatment requirements were calculated based upon the rates being tested, the concentration of active ingredient or acid equivalent in the formulation, and a 12 mL application volume at a rate of 187 L/ha.
For treatments comprised of formulated and technical compounds, weighed amounts of the technical materials were placed individually in 25 mL glass vials and dissolved in a volume of 97:3 v/v acetone/DMSO to obtain 12× stock solutions, and measured amounts of the formulated compounds were placed individually in 25 mL glass vials and diluted in a volume of 1.5% (v/v) crop oil concentrate or water to obtain 12× stock solutions. […] As required, additional water and/or 97:3 v/v acetone/DMSO was added to individual application solutions so that the final acetone and DMSO concentrations of the application solutions being compared were 8.1% and 0.25%, respectively.
All stock solutions and applications solutions were visually inspected for compound compatibility prior to application. Spray solutions were applied to the plant material with an overhead Mandel track sprayer equipped with an 8002E nozzle calibrated to deliver 187 L/ha over an application area of 0.503 m2 at a spray height of 18 to 20 inches (46 to 50 cm) above average plant canopy height. Control plants were sprayed in the same manner with the solvent blank.
The treated plants and control plants were placed in a greenhouse as described above and watered by sub-irrigation to prevent wash-off of the test compounds. […]
Table 1 illustrates weed control for foliar applications of compositions comprising halauxifen-methyl+2,4-D-dimethylammonium (2,4-D-DMA)+paraquat on various broadleaf weeds. […] The compositions disclosed herein can be used in burndown and fallow crop applications or in herbicide tolerant crops. These compositions can be used for broad-spectrum control of broadleaf weeds including, but not limited to, ALS, auxinic, HPPD, PPO, glufosinate and glyphosate resistant broadleaf weeds. The compositions disclosed herein can have utility in AAD1 and AAD12 monocot and dicot crops whereby there is crop tolerance to all 3 modes of action, providing growers with a solution to control susceptible and resistant broadleaf weeds, as well as to delay the development of resistance by the use of 3 modes of action product. The compositions disclosed herein can be used in non-crop and R&P/IVM situations, post directed in perennial crops, and potentially across many crops where there is tolerance to all 3 modes of action.

SMILES: C[n+]1ccc(-c2cc[n+](C)cc2)cc1 [paraquat, 1-methyl-4-(1-methylpyridin-1-ium-4-yl)pyridin-1-ium]
- Chem 2 Actual Mean % Weed Control (Trial 1, 17DAA): 32.50%
- Chem 2 Actual Mean % Weed Control (Trial 1, 28DAA): 52.50%
- Chem 2 Actual Mean % Weed Control (Trial 1, 43DAA): 60.00%
- Chem 2 Actual Mean % Weed Control (Trial 2, 17DAA): 52.50%
- Chem 2 Actual Mean % Weed Control (Trial 2, 28DAA): 55.00%
- Chem 2 Actual Mean % Weed Control (Trial 2, 43DAA): 65.00%
